Data published in the supplement of paper PMC10307832.

Tests used:
Assay in all cases: relative viability (nuclei count vs DMSO), 5 days (fraction); higher = more cells survive
[1] = compound: C1CC(C2=C(C1)C3=C(N2)C=CC(=C3)Cl)C(=O)N [Selisistat] + Cc1cc(Nc2cc(N3CCN(C)CC3)nc(Sc3ccc(NC(=O)C4CC4)cc3)n2)n[nH]1 [Tozasertib] (partner 0.1 µM)
How it was run: (§1)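 Relative viability equals treated-well nuclei counts divided by vehicle-well nuclei counts. Counts came from 4× images of lung cancer cell lines grown in 1536-well plates for 5 days after pin-tool dosing on the day after seeding. Dosing used one drug alone or a fixed anchor-drug dose plus five library-drug doses (not always all listed) in √10 steps, and values are medians of duplicate plates.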

[2] = compound: c1ccc2c(CCNc3ccc(Nc4ccncc4)cc3)c[nH]c2c1 [Serdemetan] + CC(C)C[C@H](NC(=O)[C@H](Cc1ccccc1)NC(=O)c1cnccn1)B(O)O [Bortezomib] (partner 0.002 µM)
How it was run: as §1

[3] = compound: c1ccc2c(CCNc3ccc(Nc4ccncc4)cc3)c[nH]c2c1 [Serdemetan] + COc1cc2c(Oc3ccc(NC(=O)C4(C(=O)Nc5ccc(F)cc5)CC4)cc3F)ccnc2cc1OCCCN1CCOCC1 [Foretinib] (partner 0.25 µM)
How it was run: as §1

[4] = compound: c1ccc2c(CCNc3ccc(Nc4ccncc4)cc3)c[nH]c2c1 [Serdemetan] + C[C@]1(O)C[C@@H](c2nc(-c3ccc4ccc(-c5ccccc5)nc4c3)c3c(N)nccn32)C1 [Linsitinib] (partner 1 µM)
How it was run: as §1

Cell Line	relative viability ([1]; first compound 0.4 µM)	relative viability ([1]; first compound 1.265 µM)	relative viability ([1]; first compound 4 µM)	relative viability ([1]; first compound 12.65 µM)	relative viability ([1]; first compound 40 µM)	relative viability ([2]; first compound 0.04 µM)	relative viability ([2]; first compound 0.1265 µM)	relative viability ([2]; first compound 0.4 µM)	relative viability ([2]; first compound 1.265 µM)	relative viability ([2]; first compound 4 µM)	relative viability ([3]; first compound 0.04 µM)	relative viability ([3]; first compound 0.1265 µM)	relative viability ([3]; first compound 0.4 µM)	relative viability ([3]; first compound 1.265 µM)	relative viability ([3]; first compound 4 µM)	relative viability ([4]; first compound 0.04 µM)	relative viability ([4]; first compound 0.1265 µM)	relative viability ([4]; first compound 0.4 µM)	relative viability ([4]; first compound 1.265 µM)	relative viability ([4]; first compound 4 µM)
LCLC-103H	0.435	0.515	0.494	0.47	0.565	1.12	1.05	0.96	0.736	1.2	0.697	0.81	0.647	0.556	0.569	0.81	1.06	1.09	0.918	0.778
LOU-NH91	0.784	0.626	0.598	0.703	0.673	0.536	0.485	0.412	0.409	0.433	0.928	0.927	0.63	0.952	0.873	0.962	1.01	–	0.894	0.83
LU99A	0.298	0.249	0.319	0.313	0.281	1.19	1.08	1.12	0.4	0.255	0.881	0.702	0.487	0.245	0.223	0.501	0.481	0.421	0.158	0.162
LXF-289	0.18	0.162	0.2	0.179	0.237	0.954	1.01	0.944	0.951	0.894	1.02	1.01	0.951	0.62	0.793	0.953	0.95	0.863	0.785	0.765
NCI-H23	0.377	0.384	0.319	0.33	0.295	1.1	1.07	1.05	0.81	1.09	0.891	1.01	0.831	0.791	0.706	0.571	0.684	0.747	0.504	0.561
NCI-H322M	0.552	0.475	0.455	0.469	0.495	1.32	1.26	1.06	1.2	1.36	0.946	0.887	0.909	0.963	0.481	0.923	0.955	0.827	0.863	0.836
NCI-H441	0.688	0.607	0.65	0.597	0.59	0.459	0.784	0.906	0.569	0.643	1.05	0.918	0.981	0.99	0.872	0.454	0.608	0.532	0.289	0.325
NCI-H460	0.515	0.366	0.289	0.28	0.441	1.05	1.1	1.19	0.561	0.1	0.895	1.01	0.883	0.597	0.104	0.747	0.71	0.537	0.153	0.104
NCI-H520	0.387	0.472	0.488	0.415	0.451	0.752	0.561	0.615	0.476	0.572	0.668	0.737	0.874	–	0.511	0.973	1.02	0.817	0.808	0.774
NCI-H596	0.848	0.753	0.898	0.835	0.914	1.17	0.606	1.11	0.649	0.818	0.87	0.703	0.684	0.355	0.402	1.14	1.04	0.789	0.623	0.541
NCI-H647	0.227	0.322	0.44	0.29	0.343	0.95	0.914	0.95	0.559	0.47	1.2	1.15	1.1	1.17	0.801	1.06	1.11	1.11	0.944	0.982
NCI-H650	0.783	0.674	0.717	0.622	0.66	0.673	0.679	0.872	0.674	0.848	0.986	1.01	1.08	0.936	0.777	0.681	0.922	0.883	0.737	0.688
NCI-H661	0.353	0.354	0.379	0.352	0.352	0.78	0.909	0.766	0.84	0.74	1	1.01	1.02	0.924	0.796	0.521	0.635	0.606	0.563	0.418
NCI-H727	0.681	0.518	–	0.483	0.69	0.923	1.01	1.03	0.557	0.431	0.831	0.737	1.32	0.634	0.437	0.286	0.238	0.28	0.124	0.191
NCI-H838	0.238	0.278	0.245	0.26	0.249	0.869	0.739	0.848	0.74	0.856	1.03	0.983	1.02	0.951	1.09	0.995	1.04	0.961	0.989	1.17
NCI-H1355	0.599	0.648	0.519	0.497	0.589	1.23	1.19	1.12	1.17	1.1	0.963	0.955	0.798	0.907	0.66	0.82	0.711	0.746	0.75	0.683
NCI-H1437	0.426	0.398	0.339	0.369	0.369	0.545	0.497	0.471	0.46	0.547	1.31	1.19	1.27	1.08	0.963	0.993	1.02	0.975	0.861	0.687

Cell Line	relative viability ([1]; first compound 0.4 µM)	relative viability ([1]; first compound 1.265 µM)	relative viability ([1]; first compound 4 µM)	relative viability ([1]; first compound 12.65 µM)	relative viability ([1]; first compound 40 µM)	relative viability ([2]; first compound 0.04 µM)	relative viability ([2]; first compound 0.1265 µM)	relative viability ([2]; first compound 0.4 µM)	relative viability ([2]; first compound 1.265 µM)	relative viability ([2]; first compound 4 µM)	relative viability ([3]; first compound 0.04 µM)	relative viability ([3]; first compound 0.1265 µM)	relative viability ([3]; first compound 0.4 µM)	relative viability ([3]; first compound 1.265 µM)	relative viability ([3]; first compound 4 µM)	relative viability ([4]; first compound 0.04 µM)	relative viability ([4]; first compound 0.1265 µM)	relative viability ([4]; first compound 0.4 µM)	relative viability ([4]; first compound 1.265 µM)	relative viability ([4]; first compound 4 µM)
NCI-H1651	0.7	0.735	0.599	0.618	0.584	0.805	0.938	0.904	0.501	0.356	0.724	0.515	0.407	0.465	0.235	0.822	0.724	0.509	0.355	0.268
NCI-H1666	0.631	0.591	0.594	0.589	0.541	0.97	0.761	0.838	0.868	0.534	0.967	0.909	0.937	0.591	0.742	0.944	0.85	0.761	0.784	0.724
NCI-H1734	0.278	0.265	0.283	0.263	0.228	0.908	–	0.677	0.158	0.18	0.692	0.335	0.223	0.126	0.204	0.702	–	0.299	0.182	0.194
NCI-H1755	0.635	0.613	0.621	0.525	0.61	0.877	0.949	0.896	0.58	0.563	0.901	0.934	0.846	0.674	0.599	0.956	0.941	0.881	0.556	0.653
NCI-H1915	0.436	0.41	0.374	0.339	0.41	0.957	0.974	1.02	0.723	0.86	1.14	1.09	1.07	1.03	0.837	1.03	1.08	1.08	0.975	0.908
NCI-H1975	0.715	0.63	0.69	0.48	0.396	0.346	0.378	0.377	0.313	0.314	0.866	0.849	0.982	–	0.987	1.01	1.04	0.974	0.985	1.19
NCI-H1993	0.58	0.579	0.57	0.569	0.539	1.08	1.06	1.05	–	1.11	0.888	0.813	0.692	0.76	0.672	0.688	0.648	0.677	–	0.713
NCI-H2009	0.743	0.734	0.765	0.694	0.744	0.95	0.986	0.929	0.787	0.797	1.18	1.14	1.16	1.14	0.887	1.18	1.2	1.13	1	0.979
NCI-H2023	0.417	0.34	0.286	0.263	0.307	0.74	0.985	0.9	0.485	0.28	0.804	0.795	0.689	0.653	0.267	0.708	0.766	0.613	0.601	0.253
NCI-H2085	0.852	0.779	0.697	0.805	0.806	1.11	1.13	1.06	0.723	0.674	1	0.899	1	0.936	0.533	0.939	0.901	0.836	0.621	0.581
NCI-H2087	0.247	0.236	–	0.164	0.272	0.738	0.812	0.759	0.375	0.572	1.01	0.92	0.858	0.447	0.355	0.907	0.842	0.945	0.608	0.505
NCI-H2126	0.852	0.819	0.825	0.841	0.867	1.12	1.12	1.11	0.934	1.12	1.23	1.13	1.03	1.01	1.03	0.745	0.736	0.638	0.642	0.686
NCI-H2228	0.315	0.223	0.29	0.315	0.217	1.34	1.02	0.974	0.404	0.301	0.755	0.518	0.784	0.303	0.258	0.806	0.68	0.519	0.59	0.397
NCI-H2347	0.606	0.733	0.427	0.617	0.583	1.05	0.752	1.2	1.01	0.744	1.08	0.831	0.89	0.954	0.604	0.753	0.965	0.959	0.666	0.679
NCI-H2405	0.784	0.752	0.719	0.763	0.722	0.976	0.915	0.905	0.738	0.949	1.03	1.01	1.01	0.902	0.764	0.864	0.997	0.964	0.897	0.628
NCI-H3122	0.367	0.352	0.347	0.34	0.372	1.03	0.955	1.06	–	1.08	0.992	0.932	0.972	–	1.01	1.09	0.946	1.05	–	1.07
